According to patent US10494332B2, “Protein tyrosine phosphatases or SHP2 inhibitors and uses thereof” (Indiana University Research and Technology Corporation, priority 2015, dated 2019):
Values joined by “and” are separate entries in the source; they are usually repeats but may differ in a detail not shown here. Equal values may be shown once. Read-outs that look alike come from different tables or passages of the source.

Experiments:
PTPε = PTPε (Homo sapiens, UniProt P23469); assay: PTP inhibition assay (pNPP); assay type: biochemical
mPTPB = target: T1, mPTPB (Mycobacterium tuberculosis, UniProt I6WXK4); assay: biochemical
T1 sequence (I6WXK4 1-276): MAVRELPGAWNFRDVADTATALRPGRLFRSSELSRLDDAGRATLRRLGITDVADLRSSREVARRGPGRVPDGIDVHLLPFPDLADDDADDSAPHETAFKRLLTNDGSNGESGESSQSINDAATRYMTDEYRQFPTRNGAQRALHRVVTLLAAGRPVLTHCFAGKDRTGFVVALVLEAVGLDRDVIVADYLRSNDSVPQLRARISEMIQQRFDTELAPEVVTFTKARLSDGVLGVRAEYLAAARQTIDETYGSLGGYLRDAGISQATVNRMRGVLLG

VHR = VHR (Homo sapiens, UniProt P51452); assay: PTP inhibition assay (pNPP); assay type: biochemical; details: pNPP at Km, pH 7.0, 25° C.
mPTPA = mPTPA (Mycobacterium tuberculosis, UniProt P9WIA1); assay: biochemical
Laforin = target: T2, Laforin (Homo sapiens, UniProt O95278); assay: PTP inhibition assay (pNPP); assay type: biochemical; details: for IC50: pNPP at Km, pH 7.0, 25° C.
T2 sequence (O95278 1-331): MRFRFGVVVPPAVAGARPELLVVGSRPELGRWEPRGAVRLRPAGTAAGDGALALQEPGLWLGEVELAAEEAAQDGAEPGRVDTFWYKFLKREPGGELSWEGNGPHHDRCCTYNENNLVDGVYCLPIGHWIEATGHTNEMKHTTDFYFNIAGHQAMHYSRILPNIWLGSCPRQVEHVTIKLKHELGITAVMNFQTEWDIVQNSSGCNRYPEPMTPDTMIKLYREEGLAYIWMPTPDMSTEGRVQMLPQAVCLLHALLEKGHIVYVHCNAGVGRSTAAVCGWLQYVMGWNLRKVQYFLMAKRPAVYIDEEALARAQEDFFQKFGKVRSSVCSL

STEP = target: T3, STEP (Homo sapiens, UniProt P54829); assay: PTP inhibition assay (pNPP); assay type: biochemical; details: pNPP at Km, pH 7.0, 25° C.
T3 sequence (P54829 1-565): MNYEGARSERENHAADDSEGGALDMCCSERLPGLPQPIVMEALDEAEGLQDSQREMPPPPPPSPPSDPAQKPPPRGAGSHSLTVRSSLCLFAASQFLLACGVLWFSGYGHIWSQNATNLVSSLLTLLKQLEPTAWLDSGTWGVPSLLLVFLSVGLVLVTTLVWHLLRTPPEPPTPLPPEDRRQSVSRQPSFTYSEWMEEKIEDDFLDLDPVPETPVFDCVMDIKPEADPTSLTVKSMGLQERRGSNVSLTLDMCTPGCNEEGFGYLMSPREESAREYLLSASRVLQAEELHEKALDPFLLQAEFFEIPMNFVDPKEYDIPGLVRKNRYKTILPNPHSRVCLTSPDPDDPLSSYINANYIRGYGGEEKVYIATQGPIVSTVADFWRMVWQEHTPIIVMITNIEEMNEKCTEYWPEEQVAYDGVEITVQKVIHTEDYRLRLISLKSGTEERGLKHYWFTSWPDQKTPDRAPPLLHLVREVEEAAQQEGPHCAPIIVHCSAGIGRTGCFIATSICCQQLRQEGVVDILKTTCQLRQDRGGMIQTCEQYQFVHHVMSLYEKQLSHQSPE

PTPα = PTPα (Homo sapiens, UniProt P18433); assay: PTP inhibition assay (pNPP); assay type: biochemical
CDC14A = target: T4, CDC14A (Homo sapiens, UniProt Q9UNH5); assay: PTP inhibition assay (pNPP); assay type: biochemical
T4 sequence (Q9UNH5 1-594): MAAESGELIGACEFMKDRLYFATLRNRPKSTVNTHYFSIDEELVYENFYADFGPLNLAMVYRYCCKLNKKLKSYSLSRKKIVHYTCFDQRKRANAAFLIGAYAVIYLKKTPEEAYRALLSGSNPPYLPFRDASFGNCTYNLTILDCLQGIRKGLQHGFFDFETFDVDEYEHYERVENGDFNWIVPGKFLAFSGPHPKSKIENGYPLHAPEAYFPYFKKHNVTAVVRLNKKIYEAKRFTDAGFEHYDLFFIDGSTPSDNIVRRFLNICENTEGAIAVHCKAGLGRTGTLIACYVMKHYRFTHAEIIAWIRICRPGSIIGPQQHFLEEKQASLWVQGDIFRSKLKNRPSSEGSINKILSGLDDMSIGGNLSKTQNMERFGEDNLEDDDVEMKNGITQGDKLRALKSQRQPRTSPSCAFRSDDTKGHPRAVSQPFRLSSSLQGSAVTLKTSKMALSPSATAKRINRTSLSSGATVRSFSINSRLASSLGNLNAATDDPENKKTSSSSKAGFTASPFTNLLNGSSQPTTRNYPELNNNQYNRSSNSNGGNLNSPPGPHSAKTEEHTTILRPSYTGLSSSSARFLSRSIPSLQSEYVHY

VHX = target: T5, VHX (Homo sapiens, UniProt Q9NRW4); assay: PTP inhibition assay (pNPP); assay type: biochemical
T5 sequence (Q9NRW4 1-184): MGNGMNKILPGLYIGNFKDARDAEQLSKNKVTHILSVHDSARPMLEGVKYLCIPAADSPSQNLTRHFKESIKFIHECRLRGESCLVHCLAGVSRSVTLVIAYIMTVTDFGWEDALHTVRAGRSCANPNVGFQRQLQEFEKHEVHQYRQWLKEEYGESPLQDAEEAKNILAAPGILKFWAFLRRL

FAP1 = FAP1 (Homo sapiens, UniProt Q12923); assay: PTP inhibition assay (pNPP); assay type: biochemical
Ssu72 = target: T6, Ssu72 (Homo sapiens, UniProt Q9NP77); assay: PTP inhibition assay (pNPP); assay type: biochemical
T6 sequence (Q9NP77 1-194): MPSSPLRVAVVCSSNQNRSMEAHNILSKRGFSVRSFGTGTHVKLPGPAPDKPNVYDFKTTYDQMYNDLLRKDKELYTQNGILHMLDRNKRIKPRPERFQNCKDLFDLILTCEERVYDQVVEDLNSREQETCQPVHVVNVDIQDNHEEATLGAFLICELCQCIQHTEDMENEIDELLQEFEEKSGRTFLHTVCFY

[1] = IC50 VHX (second VHX line of Table 15), pNPP at Km, pH 7.0, 25° C.
[2] = IC50 VHX, pNPP at Km, pH 7.0, 25° C.
[3] = pNPP at Km, pH 7.0, 25° C., read-out: IC50 FAP1
[4] = pNPP at Km, pH 7.0, 25° C., read-out: IC50 Ssu72
[5] = pNPP at Km, pH 7.0, 25° C.; read-out: IC50 VHX
[6] = pNPP at Km, pH 7.0, 25° C.; read-out: IC50 VHX (second VHX line of Table 15)

Chain of FAP1 (Q12923 whole entry): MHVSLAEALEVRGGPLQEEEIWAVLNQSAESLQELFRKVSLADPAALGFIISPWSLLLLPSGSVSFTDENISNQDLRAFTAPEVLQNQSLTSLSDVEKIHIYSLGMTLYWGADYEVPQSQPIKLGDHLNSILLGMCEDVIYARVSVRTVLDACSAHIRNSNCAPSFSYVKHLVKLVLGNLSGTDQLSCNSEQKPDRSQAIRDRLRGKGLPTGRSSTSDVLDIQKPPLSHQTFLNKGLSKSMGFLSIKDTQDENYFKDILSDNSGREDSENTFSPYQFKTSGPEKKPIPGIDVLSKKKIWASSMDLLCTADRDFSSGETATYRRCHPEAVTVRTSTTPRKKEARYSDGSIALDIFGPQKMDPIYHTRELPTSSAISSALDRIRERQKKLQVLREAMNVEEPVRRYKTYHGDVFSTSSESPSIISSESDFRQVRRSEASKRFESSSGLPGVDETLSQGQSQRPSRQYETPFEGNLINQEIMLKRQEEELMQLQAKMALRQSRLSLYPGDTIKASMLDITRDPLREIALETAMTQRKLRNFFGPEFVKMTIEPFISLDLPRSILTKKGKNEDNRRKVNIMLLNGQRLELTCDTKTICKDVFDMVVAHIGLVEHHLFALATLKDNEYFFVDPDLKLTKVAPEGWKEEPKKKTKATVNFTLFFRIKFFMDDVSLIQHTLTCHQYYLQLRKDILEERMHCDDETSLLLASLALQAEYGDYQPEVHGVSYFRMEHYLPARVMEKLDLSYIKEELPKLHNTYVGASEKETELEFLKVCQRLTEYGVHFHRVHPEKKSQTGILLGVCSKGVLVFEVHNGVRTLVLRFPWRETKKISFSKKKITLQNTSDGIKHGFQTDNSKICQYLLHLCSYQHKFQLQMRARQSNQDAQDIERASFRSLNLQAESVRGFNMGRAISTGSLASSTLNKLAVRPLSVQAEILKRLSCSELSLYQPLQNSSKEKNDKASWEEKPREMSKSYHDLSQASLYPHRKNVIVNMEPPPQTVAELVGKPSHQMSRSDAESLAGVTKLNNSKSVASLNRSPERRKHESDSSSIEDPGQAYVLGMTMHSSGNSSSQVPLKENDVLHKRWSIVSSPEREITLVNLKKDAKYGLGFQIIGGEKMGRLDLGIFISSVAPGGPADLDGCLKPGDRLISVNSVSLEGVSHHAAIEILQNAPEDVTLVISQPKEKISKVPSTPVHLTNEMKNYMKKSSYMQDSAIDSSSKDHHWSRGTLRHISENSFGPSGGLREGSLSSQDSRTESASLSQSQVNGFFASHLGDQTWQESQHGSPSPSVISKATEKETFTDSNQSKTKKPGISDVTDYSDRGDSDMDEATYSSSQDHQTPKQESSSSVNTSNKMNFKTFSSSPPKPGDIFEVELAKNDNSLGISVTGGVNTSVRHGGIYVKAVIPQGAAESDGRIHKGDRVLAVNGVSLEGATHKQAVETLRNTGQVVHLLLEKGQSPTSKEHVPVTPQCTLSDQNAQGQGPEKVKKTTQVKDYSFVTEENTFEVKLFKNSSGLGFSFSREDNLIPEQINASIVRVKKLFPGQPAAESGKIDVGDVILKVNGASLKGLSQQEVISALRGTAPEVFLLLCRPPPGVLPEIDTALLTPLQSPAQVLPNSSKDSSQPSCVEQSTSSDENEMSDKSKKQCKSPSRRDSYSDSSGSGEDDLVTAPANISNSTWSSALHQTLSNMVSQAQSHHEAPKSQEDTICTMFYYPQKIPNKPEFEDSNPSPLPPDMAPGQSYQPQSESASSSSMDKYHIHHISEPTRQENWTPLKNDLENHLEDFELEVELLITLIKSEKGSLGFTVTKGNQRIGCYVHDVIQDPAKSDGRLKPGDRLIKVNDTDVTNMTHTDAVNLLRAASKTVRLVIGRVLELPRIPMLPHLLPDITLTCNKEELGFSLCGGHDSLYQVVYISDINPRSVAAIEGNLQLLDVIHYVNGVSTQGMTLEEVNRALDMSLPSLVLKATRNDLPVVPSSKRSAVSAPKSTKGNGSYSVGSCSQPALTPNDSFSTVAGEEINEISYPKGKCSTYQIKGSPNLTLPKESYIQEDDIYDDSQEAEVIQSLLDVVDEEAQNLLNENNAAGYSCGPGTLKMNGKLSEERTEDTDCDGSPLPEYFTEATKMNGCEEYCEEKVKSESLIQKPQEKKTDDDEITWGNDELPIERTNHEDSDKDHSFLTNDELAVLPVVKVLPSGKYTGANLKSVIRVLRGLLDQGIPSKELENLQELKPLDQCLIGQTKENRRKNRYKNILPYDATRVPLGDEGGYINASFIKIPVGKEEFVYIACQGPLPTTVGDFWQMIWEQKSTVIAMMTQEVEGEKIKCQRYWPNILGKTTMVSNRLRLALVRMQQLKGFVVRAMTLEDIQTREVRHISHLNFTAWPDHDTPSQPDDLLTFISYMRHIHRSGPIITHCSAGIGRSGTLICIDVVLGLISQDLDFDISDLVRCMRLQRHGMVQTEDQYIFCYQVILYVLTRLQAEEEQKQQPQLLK
Chain of VHR (P51452 whole entry): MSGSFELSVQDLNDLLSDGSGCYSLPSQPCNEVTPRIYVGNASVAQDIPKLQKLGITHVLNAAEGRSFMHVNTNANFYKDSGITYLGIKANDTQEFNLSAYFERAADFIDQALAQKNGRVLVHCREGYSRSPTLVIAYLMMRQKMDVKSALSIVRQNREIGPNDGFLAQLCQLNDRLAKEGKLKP
Chain of PTPα (P18433 20-802): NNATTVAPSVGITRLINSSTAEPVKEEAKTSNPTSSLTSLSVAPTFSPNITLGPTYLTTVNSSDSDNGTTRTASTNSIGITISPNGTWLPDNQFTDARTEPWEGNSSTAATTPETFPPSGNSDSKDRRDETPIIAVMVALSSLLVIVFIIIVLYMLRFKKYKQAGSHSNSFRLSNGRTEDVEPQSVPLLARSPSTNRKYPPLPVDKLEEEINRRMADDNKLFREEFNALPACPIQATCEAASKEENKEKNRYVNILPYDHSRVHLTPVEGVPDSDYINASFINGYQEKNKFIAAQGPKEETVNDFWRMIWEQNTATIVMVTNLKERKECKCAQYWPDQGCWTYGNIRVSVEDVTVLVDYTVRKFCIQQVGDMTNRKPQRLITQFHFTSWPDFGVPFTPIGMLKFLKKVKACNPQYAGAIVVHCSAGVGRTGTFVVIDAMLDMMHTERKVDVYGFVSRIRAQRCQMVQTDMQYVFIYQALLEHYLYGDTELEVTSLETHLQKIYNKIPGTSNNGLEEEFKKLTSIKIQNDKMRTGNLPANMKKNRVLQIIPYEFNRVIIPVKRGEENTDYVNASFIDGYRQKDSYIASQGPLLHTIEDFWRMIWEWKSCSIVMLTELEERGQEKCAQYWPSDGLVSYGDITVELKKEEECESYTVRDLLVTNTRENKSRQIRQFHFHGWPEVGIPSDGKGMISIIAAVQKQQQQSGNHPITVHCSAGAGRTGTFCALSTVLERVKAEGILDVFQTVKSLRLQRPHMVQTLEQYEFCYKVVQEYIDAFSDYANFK
Chain of mPTPA (P9WIA1 whole entry): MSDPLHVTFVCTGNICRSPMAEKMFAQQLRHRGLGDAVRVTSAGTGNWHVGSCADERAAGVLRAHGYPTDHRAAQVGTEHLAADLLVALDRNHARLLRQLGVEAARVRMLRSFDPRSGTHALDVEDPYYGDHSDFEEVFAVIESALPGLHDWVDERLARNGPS
Chain of PTPε (P23469 20-700): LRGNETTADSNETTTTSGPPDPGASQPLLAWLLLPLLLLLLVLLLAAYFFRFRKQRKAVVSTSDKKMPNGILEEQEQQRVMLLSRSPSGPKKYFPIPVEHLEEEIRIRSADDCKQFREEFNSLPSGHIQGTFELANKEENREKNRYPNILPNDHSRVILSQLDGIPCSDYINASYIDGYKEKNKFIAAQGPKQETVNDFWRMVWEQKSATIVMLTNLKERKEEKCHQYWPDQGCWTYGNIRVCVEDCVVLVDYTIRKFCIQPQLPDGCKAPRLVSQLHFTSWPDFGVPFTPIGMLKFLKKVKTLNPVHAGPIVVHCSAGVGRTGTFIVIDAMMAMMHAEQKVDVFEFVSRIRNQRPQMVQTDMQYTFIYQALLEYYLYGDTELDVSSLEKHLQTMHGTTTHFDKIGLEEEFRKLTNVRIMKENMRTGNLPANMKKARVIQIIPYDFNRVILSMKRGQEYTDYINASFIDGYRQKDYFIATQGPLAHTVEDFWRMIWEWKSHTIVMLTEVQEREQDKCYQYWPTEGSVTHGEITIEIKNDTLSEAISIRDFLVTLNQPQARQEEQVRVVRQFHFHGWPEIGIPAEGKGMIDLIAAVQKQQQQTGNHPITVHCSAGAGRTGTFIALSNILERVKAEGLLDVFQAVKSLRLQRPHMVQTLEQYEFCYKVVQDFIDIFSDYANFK

SMILES	IC50 (PTPε) [µM]	IC50 (mPTPB; IC50 mPTPB)	IC50 (VHR) [µM]	IC50 (mPTPA; IC50 mPTPA) [nM]	IC50 (PTPα) [µM]	IC50 (CDC14A) [µM]	IC50 (FAP1; [3]) [µM]	IC50 (Laforin; read-out: IC50 Laforin) [µM]	IC50 (STEP; read-out: IC50 STEP) [µM]	IC50 (Ssu72; [4]) [µM]	IC50 (VHX; [5])	further results
Cc1c(Br)cc(NC(=O)CS(=O)(=O)O)cc1Br	> 100	3100 nM	> 100	160	> 100	> 100	–	–	–	–	–	IC50 (mPTPB; Biochemical potency against target (Ic50, nM) mPTPB): > 3200 nM; Ki (mPTPA): 0.056 ± 0.002 µM; Mode of mPTPA inhibition (mPTPA): reversible and competitive inhibitor; IC50 (mPTPA; Biochemical potency against target (Ic50, nM) mPTPA): 160 nM; IC50 (Laforin; IC50 Laforin): > 100 µM; IC50 (STEP; IC50 STEP): > 100 µM; IC50 (VHX; [1]): > 100 µM; IC50 (VHX; [2]): > 100 µM
O=C(CS(=O)(=O)O)Nc1ccc2nc(C(F)(F)F)[nH]c2c1	> 100	–	> 100	650	> 100	> 100	> 100	> 100	> 100	> 100	> 100 µM	IC50 (VHX; [6]): > 100 µM
O=C(CS(=O)(=O)O)Nc1cnc2ccccc2c1	> 100	55000 nM	> 100	3000	> 100	> 100	> 100	> 100	> 100	> 100	> 100 µM	IC50 (VHX; [6]): > 100 µM
O=C(NCCNC(=O)C(c1ccccc1)S(=O)(=O)O)c1cccc(C(=O)c2ccccc2)c1 (stereo not shown) [Compound L319-02-A60]	–	–	> 200	–	–	–	> 200	9	> 200	> 200	> 200 µM	–
O=C(NCc1ccc(NC(=O)C(c2ccccc2)S(=O)(=O)O)cc1)c1ccccc1-c1ccc(C(F)(F)F)cc1 (stereo not shown) [Compound L319-05-A64]	–	–	–	–	–	–	70	0.8	> 100	170	–	–
CCCCc1ccc(NC(=O)C(=O)Nc2ccccc2NC(=O)C(c2ccccc2)S(=O)(=O)O)cc1 (stereo not shown) [Compound L319-21-M06]	–	–	> 50	–	–	–	> 50	0.14	> 50	> 50	> 50 µM	–
O=C(Nc1cccc(OCc2ccccc2)c1)C(=O)Nc1ccccc1NC(=O)C(c1ccccc1)S(=O)(=O)O (stereo not shown) [Compound L319-21-M52]	–	–	> 50	–	–	–	> 50	0.15	> 50	> 50	> 50 µM	–
Cc1c(Br)cc(NC(=O)C(c2ccccc2)S(=O)(=O)O)cc1Br (stereo not shown) [Compound L319M34]	–	50 to 200 nM and 55 nM	–	196	–	–	–	–	–	–	–	IC50 (FAP1; IC50 FAP1): > 100 µM; IC50 (STEP; IC50 STEP): > 200 µM; IC50 (Ssu72; IC50 Ssu72): > 100 µM; IC50 (VHX; [1]): > 200 µM; IC50 (VHX; [2]): 92 µM; IC50 (VHX; read-out: IC50 VHX; pNPP at Km, pH 7.0, 25° C.): 92 µM
O=C(Nc1ccc(OCc2ccccc2)c(Cl)c1)C(c1ccccc1)S(=O)(=O)O (stereo not shown) [Compound L319M50]	–	–	> 200	–	–	–	73	2.06	> 200	66.6	> 100 µM	–
O=C(Nc1cccc(OCc2ccccc2)c1)C(c1ccccc1)S(=O)(=O)O (stereo not shown) [Compound L319M52]	> 200	106 nM	> 200	560	> 200	> 200	88	5.08	> 200	97.6	170 µM and > 100 µM	–
O=C(Nc1ccc(-c2ccccc2)cc1)C(c1ccccc1)S(=O)(=O)O (stereo not shown) [Compound L319N08]	–	–	> 200	–	–	–	–	–	–	–	–	IC50 (FAP1; IC50 FAP1): 71 µM; IC50 (STEP; IC50 STEP): > 100 µM; IC50 (Ssu72; IC50 Ssu72): 72.9 µM; IC50 (VHX; [2]): > 200 µM
O=C(CS(=O)(=O)O)Nc1nc2ccc([N+](=O)[O-])cc2s1 [Compound L335N15-07]	> 100	–	> 100	–	> 100	> 100	> 100	> 100	> 100	> 100	> 100 µM	Inhibition of Laforin at 100 μM (Laforin; 100 μM): no detectable inhibition; IC50 (VHX; [6]): > 100 µM
